{"source": "patent US11491232B2", "about": "“Lactuloside compounds and preparation and use thereof” (Fruithy Holdings Limited, priority 2017, dated 2022)", "key": {"[1]": {"assay": "Test on stability in mediums in vitro (buffer solutions with different pH, simulated intestinal fluid, simulated gastric fluid)", "assay_type": "physicochemical", "method": "At 37° C., Compound 17 was incubated in different mediums (buffer solutions with different pH, a simulated intestinal fluid containing pancreatin, and simulated gastric fluid containing pepsin).\n(§1) Other typical example compounds were tested for stability according to the above method, and the test results are shown in Table 8 below."}, "colon flora": {"tested_on": "colon flora", "assay": "Stability in the presence of colon flora (content in colon of rat)", "assay_type": "in vitro ADME, SD rat", "method": "A phosphate buffer solution with a pH of 7.0 was formulated, and then CO2 was introduced to the solution to adjust the pH to 6.8. Then, the content in colon of a male SD rat (body weight: 180-220 g) was placed in a water bath at 37° C., and added into the phosphate buffer solution with a pH of 6.8 as prepared above under the protection of N2 to a concentration of 20% (w/v). The buffer solution was kept in an oxygen-free environment. Then, the test Compound 17 was added to the buffer solution, and the solution was stirred uniformly.\nSupernatant was analyzed with HPLC, where the amount of each ingredient was calculated by normalization.\nNote: in the above table, “T14.148 (%)” represents the percentage of peak area of the material with a retention time of 14.148 min “T14.713 (%)” represents the percentage of peak area of the material with a retention time of 14.713 min. “T16.392 (%)” represents the percentage of peak area of the material with a retention time of 16.392 min. “T22.624 (%)” represents the percentage of peak area of the material with a retention time of 22.624 min.\nas §1"}, "[2]": {"details": "Simulated intestinal fluid (containing pancreatin) (pH 6.8) (8 h)"}, "[3]": {"details": "male, Sprague-Dawley (SD), rat, 1 h, pH 6.8"}, "[4]": {"details": "Content in colon (pH 6.8) (1 h)"}}, "data": [{"smiles": "C[C@@H]1C[C@H]2[C@@H]3CCC4=CC(=O)C=C[C@]4(C)[C@@]3(F)[C@@H](O)C[C@]2(C)[C@@]1(O)C(=O)COC1(CO)O[C@H](CO)[C@@H](O[C@@H]2O[C@H](CO)[C@H](O)[C@H](O)[C@H]2O)[C@@H]1O", "note": "(stereo partly drawn) [Compound 4, (11β,16α)-9-fluoro-11,17-dihydroxyl-16-methyl-21-{[4-O-(β-D-galactopyranosyl)-D-fructofuranosyl]oxy}pregna-1,4-diene-3,20-dione]", "values": [{"measurement": "Percentage of the example compound remaining (Composition, %)", "setting": "[1]; [2]", "result": 99.4, "unit": "%"}, {"measurement": "Percentage of the released active drug (prednisolone, dexamethasone, budesonide, apremilast or prucalopride) (Composition, %)", "setting": "[1]; [2]", "result": 0, "unit": "%"}, {"measurement": "Percentage of the example compound remaining (Composition, %)", "setting": "[1]; Water (pH 1.2) (2 h)", "result": 25.0, "unit": "%"}, {"measurement": "Percentage of the released active drug (prednisolone, dexamethasone, budesonide, apremilast or prucalopride) (Composition, %)", "setting": "[1]; Water (pH 1.2) (2 h)", "result": 72.7, "unit": "%"}, {"measurement": "Percentage of the example compound remaining (Composition, %)", "setting": "colon flora; [3]", "result": 15.6, "unit": "%"}, {"measurement": "Percentage of the released active drug (prednisolone, dexamethasone, budesonide, apremilast or prucalopride) (Composition, %)", "setting": "colon flora; [3]", "result": 50.3, "unit": "%"}]}, {"smiles": "CCCC1O[C@@H]2C[C@H]3[C@@H]4CCC5=CC(=O)C=C[C@]5(C)[C@H]4[C@@H](O)C[C@]3(C)[C@]2(C(=O)COC2(CO)O[C@H](CO)C(O[C@@H]3OC(CO)[C@H](O)C(O)C3O)C2O)O1", "note": "(stereo partly drawn) [Compound 7, (11β,16α)-11-hydroxyl-16,17-(butylidenedioxy)-21-{[4-O-(β-D-galactopyranosyl)-D-fructofuranosyl]oxy}pregna-1,4-diene-3,20-dione]", "values": [{"measurement": "Percentage of the example compound remaining (Composition, %)", "setting": "[1]; [2]", "result": 98.9, "unit": "%"}, {"measurement": "Percentage of the released active drug (prednisolone, dexamethasone, budesonide, apremilast or prucalopride) (Composition, %)", "setting": "[1]; [2]", "result": 0.1, "unit": "%"}, {"measurement": "Percentage of the example compound remaining (Composition, %)", "setting": "[1]; Water (pH 1.2) (2 h)", "result": 20.0, "unit": "%"}, {"measurement": "Percentage of the released active drug (prednisolone, dexamethasone, budesonide, apremilast or prucalopride) (Composition, %)", "setting": "[1]; Water (pH 1.2) (2 h)", "result": 61.6, "unit": "%"}, {"measurement": "Percentage of the example compound remaining (Composition, %)", "setting": "colon flora; [3]", "result": 27.2, "unit": "%"}, {"measurement": "Percentage of the released active drug (prednisolone, dexamethasone, budesonide, apremilast or prucalopride) (Composition, %)", "setting": "colon flora; [3]", "result": 45.9, "unit": "%"}]}, {"smiles": "CCOc1cc([C@@H](CS(C)(=O)=O)N2C(=O)c3cccc(N(C(C)=O)C4(CO)O[C@H](CO)C(O[C@@H]5OC(CO)[C@H](O)C(O)C5O)C4O)c3C2=O)ccc1OC", "note": "(stereo partly drawn) [Compound 12, N-{2-[(S)-1-(3-ethoxy-4-methoxyphenyl)-2-(methylsulfonyl)ethyl]-1,3-dioxo-2,3-dihydro-1H-isoindol-4-yl}-N′-[4-O-(β-D-galactopyranosyl)-D-fructofuranosyl]acetamide]", "values": [{"measurement": "Percentage of the example compound remaining (Composition, %)", "setting": "[1]; [2]", "result": 100, "unit": "%"}, {"measurement": "Percentage of the released active drug (prednisolone, dexamethasone, budesonide, apremilast or prucalopride) (Composition, %)", "setting": "[1]; [2]", "result": 0, "unit": "%"}, {"measurement": "Percentage of the example compound remaining (Composition, %)", "setting": "[1]; Water (pH 1.2) (2 h)", "result": 20.0, "unit": "%"}, {"measurement": "Percentage of the released active drug (prednisolone, dexamethasone, budesonide, apremilast or prucalopride) (Composition, %)", "setting": "[1]; Water (pH 1.2) (2 h)", "result": 79.8, "unit": "%"}, {"measurement": "Percentage of the example compound remaining (Composition, %)", "setting": "colon flora; [4]", "result": 30.1, "unit": "%"}]}, {"smiles": "COCCCN1CCC(N(C(=O)c2cc(Cl)c(N)c3c2OCC3)C2(CO)O[C@H](CO)C(O[C@@H]3OC(CO)[C@H](O)C(O)C3O)C2O)CC1", "note": "(stereo partly drawn) [Compound 13, 4-amino-5-chloro-2,3-dihydro-N-[1-(3-methoxypropyl)-4-piperidinyl]-N′-[4-O-(β-D-galactopyranosyl)-D-fructofuranosyl]-7-benzofurancarboxamide]", "values": [{"measurement": "Percentage of the example compound remaining (Composition, %)", "setting": "[1]; [2]", "result": 99.4, "unit": "%"}, {"measurement": "Percentage of the released active drug (prednisolone, dexamethasone, budesonide, apremilast or prucalopride) (Composition, %)", "setting": "[1]; [2]", "result": 0, "unit": "%"}, {"measurement": "Percentage of the example compound remaining (Composition, %)", "setting": "[1]; Water (pH 1.2) (2 h)", "result": 4.4, "unit": "%"}, {"measurement": "Percentage of the released active drug (prednisolone, dexamethasone, budesonide, apremilast or prucalopride) (Composition, %)", "setting": "[1]; Water (pH 1.2) (2 h)", "result": 95.0, "unit": "%"}, {"measurement": "Percentage of the example compound remaining (Composition, %)", "setting": "colon flora; [4]", "result": 18.7, "unit": "%"}]}, {"smiles": "COCCCN1CCC(NC(=O)c2cc(Cl)c(NC3(CO)O[C@H](CO)[C@@H](O[C@@H]4O[C@H](CO)[C@H](O)[C@H](O)[C@H]4O)[C@@H]3O)c3c2OCC3)CC1", "note": "(stereo partly drawn) [Compound 14, 5-chloro-2,3-dihydro-4-{[4-O-(β-D-galactopyranosyl)-D-fructofuranosyl]amino}-N-[1-(3-methoxypropyl)-4-piperidinyl]-7-benzofurancarboxamide]", "values": [{"measurement": "Percentage of the example compound remaining (Composition, %)", "setting": "[1]; [2]", "result": 98.3, "unit": "%"}, {"measurement": "Percentage of the released active drug (prednisolone, dexamethasone, budesonide, apremilast or prucalopride) (Composition, %)", "setting": "[1]; [2]", "result": 1.1, "unit": "%"}, {"measurement": "Percentage of the released active drug (prednisolone, dexamethasone, budesonide, apremilast or prucalopride) (Composition, %)", "setting": "[1]; Water (pH 1.2) (2 h)", "result": 99.5, "unit": "%"}, {"measurement": "Percentage of the example compound remaining (Composition, %)", "setting": "colon flora; [4]", "result": 2.1, "unit": "%"}]}]}
